Where two headings read alike, the source gives them in different places.
Tests used:
[1] = test system: carrageenan-based footpad-edema model; experiment: Carrageenan footpad edema model, 8-week orally fed mice; assay type: in vivo; conditions: 8 week oral treatment
Experimental: Experiments using the CFZ mice model were performed as published before (Baik et al., 2013, supra; Baik et al., 2012, supra; Keswani, R. K. et al. Mol. Pharm. 12, 2528-2536 (2015)). Mice (4 week old, male C57Bl/6) were purchased from the Jackson Laboratory (Bar Harbor, Me.) and acclimatised for 2 weeks in a specific-pathogen-free animal facility. All animal care was provided by the University of Michigan's Unit for Laboratory Animal Medicine (ULAM), and the experimental protocol was approved by the Committee on Use and Care of Animals. CFZ was dissolved in sesame oil (Roland, China, or Shirakiku, Japan) to achieve a concentration of 3 mg/ml, which was mixed with Powdered Lab Diet 5001 (PMI International, Inc., St. Louis, Mo.) to produce a 0.03% drug to powdered feed mix. A corresponding amount of sesame oil was mixed with chow for vehicle treatment (control).
Mice Carrageenan Footpad Edema Model. Carrageenan (C1867, Sigma-Aldrich®, 2% in PBS, 30 μl) was injected into the right footpad while PBS (30 μl) was injected in the left footpad as a negative control. For preliminary testing of CFZ as an anti-inflammatory agent, 8-week orally fed mice (CFZ and control) were used. For testing of CFZ in soluble and microcrystal form, naïve 4-5 week old mice were injected with carrageenan first followed by injection of CFZ-A (2 mM in DMSO, 30 μl), CLDIs (2 mM equivalent in PBS, 30 μl) or CFZ-HCl (2 mM equivalent in PBS, 30 μl) at 48 h post carrageenan injection. For control experiments, CFZ-A, CLDIs and CFZ-HCl were injected into the right footpads of naïve 4-5 week old mice. DMSO was used as a control for CFZ-A in the left footpad whereas PBS was used as a control for CLDIs and CFZ-HCl. Footpads were measured (length—l, width—w, three thicknesses—t1, t2, t3) at various time points using a digital vernier calliper and changes in the swelling based on volume of the foot was calculated as per above.

[2] = humans; cited from earlier work
[3] = cited from earlier work
[4] = test system: TNFα; experiment: TNFα ELISA, non-stimulated cells; assay type: cell-based, murine; conditions: non-stimulated RAW 264.7 cells
Experimental: (§1) The murine macrophage cell line RAW 264.7 was purchased from ATCC (Manassas, Va.) and maintained in DMEM (Life Technologies, Carlsbad, Calif.) supplemented with 10% FBS. Soluble CFZ or isolated CLDIs were added at various concentrations in DMEM with 5% FBS to 6-well plates containing 4×10^5 cells/well and incubated (24 h at 37° C. and 5% CO2). Culture supernatants were harvested at 24 h, centrifuged (1500×g for 5 min), and stored (−20° C.) in frozen aliquots prior to analysis. For experiments involving TLR stimulation, cells were washed twice with pre-warmed DPBS to remove extracellular, non-phagocytosed CLDIs or CFZ, and then the cells were serum-starved for 18 h in DMEM. Supernatants were collected from unstimulated cells and cells stimulated with 200 ng/ml Pam3 or 1 μg/ml LPS in DMEM.
The media of cells with or without 6 h TLR stimulation by Pam3 or LPS was harvested, and TNFα and IL-1RA levels were measured by ELISA (Duoset, R&D Systems, Minneapolis, Minn.) in duplicate wells according to the manufacturer's instructions. The cytokine concentrations were expressed as picogram per milligram of cell lysate. Experiments were repeated three times and values are expressed as the mean±SD.

[5] = test system: NF-κB (p65); experiment: p65 nuclear translocation immunofluorescence; assay type: cell-based, murine
Experimental: as §1, with “Supernatants were collected from unstimulated cells and cells stimulated with 200 ng/ml Pam3 or 1 μg/ml LPS in DMEM.” left out
Brightfield and fluorescence (DAPI, FITC, Texas Red and Cy5) images were captured using the Nikon Eclipse Ti (Japan) inverted microscope equipped with a Nikon Digital Sight DS-Fi2 camera (Japan) for brightfield and Photometrics Coolsnap Myo camera (Tucson, Ariz.) for fluorescence. […] For determining the ratio of nucleus-to-cytoplasm p65 fluorescence, ImageJ was used following previously described methods (Fuseler, et al., Microsc. Microanal. 2006, 12, 269-276; Noursadeghi, M. et al., J. Immunol. Methods 2008, 329, 194-200). The average volume of CLDIs was calculated using the area, Feret max and min values of each CLDI acquired from ImageJ. […]

[6] = test system: Akt; experiment: Western blot of Akt phosphorylated at Ser473; assay type: cell-based, murine; conditions: RAW 264.7 cells, 24 h
Experimental: as §1

[7] = test system: RAW 264.7 cells; experiment: Cell viability assay (XTT assay); assay type: cell-based, murine; conditions: 24 h
Experimental: Cells were plated in triplicate wells at a density of 5×10^3 per well in 96-well plates in DMEM with 5% FBS and allowed to adhere overnight. Soluble CFZ (Stock solution 5 mM in DMSO) or CLDIs were added (0.25, 0.5, 1, 2, 4, 10, 20, 40 and 80 μM final concentrations) to cells and incubated (37° C.) for 24 h. XTT assay (Roche, UK) was carried out according to the manufacturer's instructions with absorbance measured at 450 nm and 690 nm using a Synergy-2 plate reader (Biotek). The cell viability percentage was calculated by comparing absorbance of CFZ and CLDI-treated cells to control (untreated) cells.

SMILES: CC(C)/N=c1\cc2n(-c3ccc(Cl)cc3)c3ccccc3nc-2cc1Nc1ccc(Cl)cc1 [CFZ, 3-(p-chloroanilino)-10-(p-chlorophenyl)-2, 10-dihydro-2-isopropyliminophenazine]
- decrease of inflammation vs control diet ([1]; t=4 h): ~3 fold
- decrease of inflammation vs control diet ([1]; t=24 h): ~14 fold
- decrease of inflammation vs control diet ([1]; t=48 h): ~2 fold
- pharmacokinetic half-life t1/2 [2]: ~70 days
- half-life ([3]; after an acute dose, oral): in the order of hours to days
- half-life ([3]; upon prolonged oral administration): in the order of weeks to months
- TNFα production on their own [4]: failed to induce TNFα production
- p65 nuclear translocation ([5]; LPS stimulation, 3 h, 4 μM soluble CFZ or 40 μM CLDI): reduced p65 translocation in response to LPS
- p65 nuclear translocation ([5]; naïve, no stimulation): did not induce nuclear translocation of p65
- phosphorylation of Akt [6]: minimally affected phosphorylation of Akt
- cell viability ([7]; 2 μM): 61%
- cell viability ([7]; 10 μM): 20%
